Data: ChEMBL document CHEMBL1153771, “Gamma-lactone carbazoles from Clausena anisata” (2009)
Calls of active or inactive are those of the source. No cut-off for these calls is given here.

test system: HL-60; test: Cytotoxicity against human HL60 cells assessed as cell viability at 30 uM after 24 hrs by MTS assay; assay type: functional; settings: not given

SMILES	Activity
O=Cc1cc2c(cc1O)[nH]c1ccccc12	inactive
COC(=O)c1cc2c(cc1O)[nH]c1ccccc12	inactive
COC(=O)c1cc(OC)c2[nH]c3ccccc3c2c1CC=C(C)C	inactive
COC(=O)c1cc(O)c2[nH]c3ccccc3c2c1CC=C(C)C	inactive
COc1cc2[nH]c3ccccc3c2cc1C=O	inactive

same assay, conditions: HL-60, 24 h, read-out: Activity

SMILES	viability at 30 µM [%]
C=C(C)C1Cc2c(cc(OC)c3[nH]c4ccccc4c23)C(=O)O1 (stereo not drawn) [CLAUSAMINE B]	80.3
COC(=O)c1cc(OC)c2[nH]c3ccccc3c2c1/C=C/C(C)(C)O [CLAUSAMINE E]	47.3
COc1cc2c(c3c1[nH]c1ccccc13)CC(C(C)(C)O)OC2=O (stereo not drawn) [CLAUSAMINE C]	79.7
